Structures can show the parent of a compound that is named as a salt.

Consider four compounds from patent US6352976B1, “Selective inhibitors of MMP-12” (Aventis Pharmaceuticals Inc., priority 1998, dated 2002).

For assay [1], the target named is T1, MMP-1 (interstitial collagenase) (Homo sapiens, UniProt P03956).
T1 construct: The active MMP-1 was obtained by treatment of proMMP-1 with trypsin; endogenous in cells; host or cells: human rheumatoid synovial fibroblasts stimulated with macrophage-conditioned medium; secreted proenzyme purified from culture medium
T1 sequence (P03956 100-469): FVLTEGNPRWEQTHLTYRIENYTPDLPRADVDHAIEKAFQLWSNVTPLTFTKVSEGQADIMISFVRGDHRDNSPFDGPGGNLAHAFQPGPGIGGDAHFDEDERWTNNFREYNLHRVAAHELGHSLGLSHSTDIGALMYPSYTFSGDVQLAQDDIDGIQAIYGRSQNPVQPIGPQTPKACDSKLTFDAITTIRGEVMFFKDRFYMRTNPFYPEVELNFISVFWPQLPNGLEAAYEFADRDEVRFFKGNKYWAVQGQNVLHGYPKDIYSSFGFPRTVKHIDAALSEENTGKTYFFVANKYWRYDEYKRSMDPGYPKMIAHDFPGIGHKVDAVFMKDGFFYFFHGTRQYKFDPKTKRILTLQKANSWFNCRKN
Kind of assay: Determination of inhibition constant (Ki) for MMP-1, fluorogenic substrate. The format is biochemical. The note with it: pH 7.6. The method, then: ProMMP-1 (EC3.4.24.7; interstitial collagenase) was purified from culture medium of human rheumatoid synovial fibroblasts stimulated with macrophage-conditioned medium according to Okada, Y. et al., J. Biol. Chem. 261, 14245-14255 (1986). The active MMP-1 was obtained by treatment of proMMP-1 with trypsin (5 μg/mL) at 37° C. for 30 minutes, followed by addition of soybean trypsin inhibitor (50 μg/mL).
The activated MMP-1 is assayed using a fluorogenic substrate, Mca-Pro-Leu-Gly-Leu-Dpa-Ala-Arg-NH2, Knight, C. G. et al., FEBS Lett. 296, 263-266 (1992), at 37° C. in 2.0 mL of assay buffer containing 50 mM Tris, pH 7.6, 0.2 M sodium chloride, 50 mM calcium chloride, and 0.02% Brij-35. The increase in fluorescence due to cleavage of Gly-Leu peptide bond by MMP-3 was monitored with Perkin-Elmer LS50B Fluorimeter (λex 328 nm, λem 393 nm, excitation slit 2.5, emission slit 10). Substrate and inhibitor stock solutions were made in DMF. For determination of Ki values for MMP-1 inhibitors, a series of intermediate inhibitor solutions were prepared in DMF and 1 or 2 μL of the diluted inhibitor solution was mixed with 1 μL of 2 mM substrate solution in DMF in a quartz cuvette containing 2 mL of assay buffer. The enzyme (10 μL of 0.2 μM […] dilution in assay buffer) was added at the last to start the reaction. For routine measurement of a Ki value for a reversible, competitive inhibitor, the initial rates in the presence of at least four inhibitor concentrations (two concentrations above Ki and two concentrations below Ki) were measured using [S]=1 μM (<<Km) and [MMP-1]=0.8 nM. Under these conditions, the measured Ki, app is close to true Ki.
The Ki for a competitive inhibitor is calculated using: v0/vi=(1+[I]/Ki, app) and Ki=Ki, app/(1+[S]/Km), where v0 is the initial rate in the absence of inhibitor, vi is the initial rate in the presence of inhibitor at the concentration of [I], [S] is the substrate concentration, and Km is the Michaelis constant. If slow binding is observed (i.e. if the approach to the binding equilibrium is slow), the final steady-state rate rather than the initial rate is taken as vi.

The target of a further assay is T2, MMP-2 (Homo sapiens, UniProt P08253).
T2 construct: made in house; host or cells: Pichia pastoris (strains KM71 / SMD1168, clone 24S; vector pHIL-D2)
T2 sequence (P08253 110-660): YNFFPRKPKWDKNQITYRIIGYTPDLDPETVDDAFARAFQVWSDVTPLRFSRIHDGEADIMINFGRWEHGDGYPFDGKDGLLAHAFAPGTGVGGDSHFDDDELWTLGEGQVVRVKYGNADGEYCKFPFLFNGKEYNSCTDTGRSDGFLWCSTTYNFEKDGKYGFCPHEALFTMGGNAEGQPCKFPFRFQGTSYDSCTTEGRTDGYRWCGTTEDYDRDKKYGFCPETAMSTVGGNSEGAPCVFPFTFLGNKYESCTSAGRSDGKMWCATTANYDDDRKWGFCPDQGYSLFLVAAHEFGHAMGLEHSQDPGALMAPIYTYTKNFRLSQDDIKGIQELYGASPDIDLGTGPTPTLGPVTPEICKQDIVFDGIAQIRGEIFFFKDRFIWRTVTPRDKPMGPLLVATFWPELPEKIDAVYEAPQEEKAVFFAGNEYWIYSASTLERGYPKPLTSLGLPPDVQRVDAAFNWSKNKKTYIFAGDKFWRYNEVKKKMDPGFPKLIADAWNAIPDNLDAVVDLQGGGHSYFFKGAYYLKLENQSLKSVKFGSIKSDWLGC
Kind of assay: Determination of inhibition constant (Ki) for MMP-2, fluorogenic substrate. The format is biochemical. The note with it: pH 7.6. From the text: Recombinant MMP-2 was purified from the fermentation broth of yeast Pichia pastoris that carries the integrated MMP-2 gene into its chromosome. In brief, the full-length cDNA for MMP-2 was obtained by reverse transcription of RNA from human melanoma A375M cell line by the reverse transcriptase polymerase chain reaction (RT-PCR) using sequence specific oligonucleotides. The nucleotide sequence was confirmed by Taq cycle sequencing. The cDNA was ligated into the Pichia pastoris expression vector pHIL-D2 in such a way that the expression of pro-MMP-2 is under the control of the methanol inducible alcohol oxidase promoter. The expression construct was digested with either SalI or NsiI and used to transform the Pichia pastoris strains KM71 and SMD1168. A large-scale culture of a selected clone designated 24S was performed in a high cell density fermentor and the recombinant MMP-2 was purified from the culture supernatant by gelatin-sepharose 4B (Pharmacia). The enzyme is sufficiently pure at this stage for routine measurement of inhibition. If desired, however, the enzyme may be further purified by AcA 44 gel filtration (Spectra).
The active MMP-2 was obtained by activation of proMMP-2 at 37° C. for 1 h with 4-aminophenylmercuric acetate which was then removed by a Sephadex G-50 spin column. The enzyme is assayed using a fluorogenic substrate, Mca-Pro-Leu-Gly-Leu-Dpa-Ala-Arg-NH2, at 37° C. in 2.0 mL of assay buffer containing 50 mM Tris, pH 7.6, 0.2 M sodium chloride, 50 mM calcium chloride, 0.02% Brij-35, and 50 μM β-mercaptoethanol. The increase in fluorescence is monitored (λex 328 nm, λem 393 nm). Substrate and inhibitor stock solutions are made in DMF. The enzyme is added at the last to start the reaction. For routine measurement of a Ki value for a reversible, competitive inhibitor, the initial rates in the presence of at least four inhibitor concentrations (two inhibitor concentrations above Ki and two below Ki) are measured using [S]=1 μM (<<Km) and [MMP-2]=0.4 nM. Under these conditions, the measured Ki, app is close to true Ki.

Setting [2] is: Table 1, Mca-Pro-Leu-Gly-Leu-Dpa-Ala-Arg-NH2, 37° C.

As to `CC(C)C[C@H](NC(=O)[C@@H](S)C(C)C)C(=O)N[C@@H](Cc1ccccc1)C(=O)O` [Example 3, (S)-2-Mercapto-3-methylbutyroyl-(L)-leucyl-(L)-phenylalanine], the inhibition constant Ki in assay [1] (setting [2]) is 518 nM; on MMP-2 (setting [2]), 784 nM.

On to `CSCC[C@H](NC(=O)[C@@H](S)C(C)C)C(=O)N[C@@H](Cc1ccccc1)C(=O)O` [Example 4, (S)-2-Mercapto-3-methylbutyroyl-(L)-methionyl-(L)-phenylalanine], for which the Ki came to 153 nM in assay [1] (setting [2]) and 798 nM at MMP-2 (setting [2]).

As for `CC(C)[C@H](S)C(=O)N[C@@H](CCCCN)C(=O)N[C@@H](Cc1ccccc1)C(=O)O` [Example 5, (S)-2-Mercapto-3-methylbutyroyl-(L)-lysyl-(L)-phenylalanine trifluoroacetic acid salt], the Ki stood at 3910 nM in assay [1] (setting [2]) and 1740 nM at MMP-2 (setting [2]).

With `CNC(=O)[C@H](Cc1ccccc1)NC(=O)[C@H](CCc1ccccc1)NC(=O)C(S)C(C)C` (stereo partly drawn) [Example 7, (S)-2-Mercapto-3-methylbutyroyl-(L)-homo-phenylalanyl-(L)-phenylalanine N-methyl amide, reference compound], the Ki in assay [1] (Table 2 (comparative), method of Example A, 37° C.) worked out at 465 nM; at MMP-2 (Table 2 (comparative), method of Example B, 37° C.), 3.3 nM.

A word on the Ki: it is the equilibrium dissociation constant of an inhibitor or competing ligand from its target.
